# In patent publication US20130281313A1, “PROGNOSTIC AND/OR PREDICTIVE BIOMARKERS AND BIOLOGICAL APPLICATIONS THEREOF” (INSTITUT GUSTAVE ROUSSY, priority 2010, published 2013):
# Key:
# Type in all cases: cell-based, human
# [1] = system: A549 cells; experiment: Transcriptome studies (mRNA microarrays)
# Description: NSCLC A549 cells were treated with 100 μM CDDP, 75 μM C2-CER or 100 μM CdCl2 for 12 h, or with 50 μM CDDP, C2-CER or CdCl2 for 24 h. Thereafter, cells were collected and lysed for RNA extraction of following established procedures {de La Motte Rouge, 2007}. mRNA expression changes were quantified on G4112A 44 k Whole Human Genome Oligo Microarrays (Agilent Technologies, Santa Clara, USA), as previously reported {Castedo, 2006}. mRNA microarrays underwent standardized post-hybridization processing, image acquisition and analysis (see below) {Castedo, 2006}.
# Data from microarray experiments were analyzed with the Rosetta Resolver® System (Rosetta Biosoftware, Seattle, USA). The threshold for statistical significance of probe signals (Intensity) was set at p=10^−5. […] For each mRNA, fold change (FC) was then defined as Intensitysample/Intensitycontrol when Intensitysample>Intensitycontrol, or as—(Intensitycontrol/Intensitysample) when Intensitysample<Intensitycontrol. Ratios were calculated as Intensitysample/Intensitycontrol.
# [2] = system: A549 cells; experiment: Cytofluorometric assessment of cell death (DiOC6(3)/PI co-staining); settings: A549 cells, CDDP irrespective of the presence of PN
# Description: Unless otherwise specified, chemicals were purchased from Sigma-Aldrich (St. Louis, USA), culture media and supplements for cell culture from Gibco-Invitrogen (Carlsbad, USA) and plasticware from Corning (Corning, USA). […] Orlistat (Xenical®) was obtained from Roche (Basel, Switzerland). […] Undissolved material was removed by two sequential rounds of centrifugation at 12,000 G (5 min, room temperature, RT), supernatants were collected and stored at −80° C. under protection from light until use. In low-throughput experiments, all cell lines were treated with 2.5 mM pyridoxine (PN), exception made for A549 cells that received 5 mM PN.
# To avoid depleting the siRNA library of selected sequences, siRNAs for validation experiments were purchased as custom molecules from Sigma-Aldrich. For low-throughput experiments, (see below for the transfection protocols employed in the siRNA screen), siRNA were transfected in A549 cells with Oligofectamine™ reagent (Invitrogen), following the manufacturer's instructions. Transfection with a non-targeting siRNA (siUNR) was employed as a negative control condition. Forty-eight hours after transfection, siRNA-mediated target downregulation was assessed by immunoblotting (see below).
# All cytofluorometric determinations were carried out a FACSCalibur or a FACScan cytofluorometer (BD Biosciences, San Jose, USA) equipped with a 70 μm nozzle.
# (§1) First line statistical analysis of cytofluorometric results was performed by using the CellQuest™ software (BD Biosciences), by gating on the events characterized by normal forward scatter and side scatter parameters. Apoptosis- and cell cycle-related data were further analyzed with Microsoft Excel (Microsoft Co., Redmond, USA) and statistical significance was assessed by means of two-tailed Student's t test (p<0.05).
# [3] = system: A549 cells; experiment: Cell cycle distribution (PI staining, cytofluorometry); settings: 10 μM CDDP alone or with PN and/or NAC
# Description: To measure apoptosis-related parameters, living cells were labeled for 30 min at +37° C. with 40 nM 3,3′dihexyloxalocarbocyanine iodide (DiOC6(3), from Molecular Probes-Invitrogen, Eugene, USA), which quantifies the mitochondrial transmembrane potential (Δψm), plus 1 μg/mL propidium iodide (PI), which only accumulates in cells with ruptured plasma membrane {Galluzzi, 2009; Galluzzi, 2008; Galluzzi, 2007}. To assess cell cycle distribution, cells were collected, fixed by gentle vortexing in ice-cold 80% (v/v) ethanol (Carlo Erba Reagents, Milano, Italy) and stained with 50 μg/mL PI in 0.1% (w/v) D-glucose in PBS supplemented with 1 μg/mL (w/v) RNAse A {Mondragon, 2009; Mouhamad, 2007}. All cytofluorometric determinations were carried out a FACSCalibur or a FACScan cytofluorometer (BD Biosciences, San Jose, USA) equipped with a 70 μm nozzle.
# as §1
# [4] = 12 h, 100 μM CDDP, 75 μM C2-CER or 100 μM CdCl2, vs untreated cells
# [5] = 24 h, 50 μM CDDP, C2-CER or CdCl2, vs untreated cells
smiles,measurement,setting,value
"CCCCCCCCCCCCC/C=C/[C@@H](O)[C@H](CO)NC(C)=O [C2-CER, C2-ceramide]","Fold change, ADAR (NM_001111) transcript",[1]; [4],n.s.
same,"Fold change, ALDH7AT (NM_001182) transcript",[1]; [4],−1.85
same,"Fold change, CD151 (NM_004357) transcript",[1]; [4],n.s.
same,"Fold change, CLIC1 (NM_001288) transcript",[1]; [4],n.s.
same,"Fold change, COMMO9 (NM_014186) transcript",[1]; [4],n.s.
same,"Fold change, COX5B (NM_001802) transcript",[1]; [4],−1.62
same,"Fold change, COX7C (NM_001867) transcript",[1]; [4],−1.33
same,"Fold change, DHRSX (NM_145177) transcript",[1]; [4],n.s.
same,"Fold change, EBP (NM_006579) transcript",[1]; [4],−2.80
same,"Fold change, EEF2 (NM_001901) transcript",[1]; [4],2.31
same,"Fold change, FDXK (NM_003681) transcript",[1]; [4],−1.89
same,"Fold change, FN3KRP (NM_024619) transcript",[1]; [4],−1.35
same,"Fold change, HDLBP (NM_005336) transcript",[1]; [4],1.69
same,"Fold change, HGD (NM_000187) transcript",[1]; [4],−2.15
same,"Fold change, IL6R (NM_000565) transcript",[1]; [4],2.94
same,"Fold change, KHSRP (NM_003685) transcript",[1]; [4],−2.29
same,"Fold change, LOC389727 (NM_372092) transcript",[1]; [4],n.s.
same,"Fold change, MAT2A (NM_005911) transcript",[1]; [4],−3.47
same,"Fold change, MOL1 (NM_021960) transcript",[1]; [4],−1.35
same,"Fold change, MPP6 (NM_016447) transcript",[1]; [4],n.s.
same,"Fold change, OSTCL (NM_145303) transcript",[1]; [4],2.25
same,"Fold change, P5MC5 (NM_002805) transcript",[1]; [4],−2.20
same,"Fold change, PLK1S1 (NM_018474) transcript",[1]; [4],1.99
same,"Fold change, PPM1J (NM_005167) transcript",[1]; [4],n.s.
same,"Fold change, RNF26 (NM_032015) transcript",[1]; [4],n.s.
same,"Fold change, RRAD (NM_004185) transcript",[1]; [4],n.s.
same,"Fold change, SEMA3G (NM_000379) transcript",[1]; [4],n.s.
same,"Fold change, SLC22A16AS (NM_007105) transcript",[1]; [4],−1.40
same,"Fold change, SOCS6 (NM_004232) transcript",[1]; [4],n.s.
same,"Fold change, TMED1 (NM_006858) transcript",[1]; [4],n.s.
same,"Fold change, TRIP4 (NM_016213) transcript",[1]; [4],1.83
same,"Fold change, UBE2L3 (NM_003347) transcript",[1]; [4],−1.48
same,"Fold change, UBE21 (NM_014176) transcript",[1]; [4],−2.92
same,"Fold change, W282 (NM_018029) transcript",[1]; [4],n.s.
same,"Fold change, ADAR (NM_001111) transcript",[1]; [5],−1.45
same,"Fold change, ALDH7AT (NM_001182) transcript",[1]; [5],−1.98
same,"Fold change, CD151 (NM_004357) transcript",[1]; [5],n.s.
same,"Fold change, CLIC1 (NM_001288) transcript",[1]; [5],n.s.
same,"Fold change, COMMO9 (NM_014186) transcript",[1]; [5],n.s.
same,"Fold change, COX5B (NM_001802) transcript",[1]; [5],−1.61
same,"Fold change, COX7C (NM_001867) transcript",[1]; [5],n.s.
same,"Fold change, DHRSX (NM_145177) transcript",[1]; [5],n.s.
same,"Fold change, EBP (NM_006579) transcript",[1]; [5],−3.16
same,"Fold change, EEF2 (NM_001901) transcript",[1]; [5],2.62
same,"Fold change, FDXK (NM_003681) transcript",[1]; [5],−1.91
same,"Fold change, FN3KRP (NM_024619) transcript",[1]; [5],−1.67
same,"Fold change, HDLBP (NM_005336) transcript",[1]; [5],1.99
same,"Fold change, HGD (NM_000187) transcript",[1]; [5],−4.23
same,"Fold change, IL6R (NM_000565) transcript",[1]; [5],3.52
same,"Fold change, KHSRP (NM_003685) transcript",[1]; [5],−2.23
same,"Fold change, LOC389727 (NM_372092) transcript",[1]; [5],n.s.
same,"Fold change, MAT2A (NM_005911) transcript",[1]; [5],−2.96
same,"Fold change, MOL1 (NM_021960) transcript",[1]; [5],−1.58
same,"Fold change, MPP6 (NM_016447) transcript",[1]; [5],n.s.
same,"Fold change, OSTCL (NM_145303) transcript",[1]; [5],3.08
same,"Fold change, P5MC5 (NM_002805) transcript",[1]; [5],−2.27
same,"Fold change, PLK1S1 (NM_018474) transcript",[1]; [5],1.93
same,"Fold change, PPM1J (NM_005167) transcript",[1]; [5],n.s.
same,"Fold change, RNF26 (NM_032015) transcript",[1]; [5],−2.11
same,"Fold change, RRAD (NM_004185) transcript",[1]; [5],1.55
same,"Fold change, SEMA3G (NM_000379) transcript",[1]; [5],n.s.
same,"Fold change, SLC22A16AS (NM_007105) transcript",[1]; [5],−1.60
same,"Fold change, SOCS6 (NM_004232) transcript",[1]; [5],n.s.
same,"Fold change, TMED1 (NM_006858) transcript",[1]; [5],n.s.
same,"Fold change, TRIP4 (NM_016213) transcript",[1]; [5],1.65
same,"Fold change, UBE2L3 (NM_003347) transcript",[1]; [5],−1.47
same,"Fold change, UBE21 (NM_014176) transcript",[1]; [5],−4.38
same,"Fold change, W282 (NM_018029) transcript",[1]; [5],n.s.
"CC(=O)N[C@@H](CS)C(=O)O [NAC, N-acetylcysteine]","apoptosis-inducing effect of CDDP (DiOC6(3)/PI co-staining or DNA loss, sub-G1 peak)",[2],blocked the apoptosis-inducing effect of CDDP
same,cell cycle arrest induced by CDDP,[3],failed to reverse the cell cycle arrest induced by CDDP
